What was measured:
[1] = target: Muscarinic acetylcholine receptor M2 (Mus musculus) (UniProt Q9ERZ4); test: In vivo determination of peripheral M2 receptor mediated hypothermia, cholinergic side effect
[2] = target: Muscarinic acetylcholine receptor M2 (Mus musculus) (UniProt Q9ERZ4); test: In vivo determination of peripheral M2 receptor mediated tremor, cholinergic side effect
[3] = target: Muscarinic acetylcholine receptor M2 (Mus musculus) (UniProt Q9ERZ4); test: In vivo determination of peripheral M2 receptor mediated salivation, cholinergic side effect
[4] = target: Muscarinic acetylcholine receptor M2 (Mus musculus) (UniProt Q9ERZ4); test: Compound was tested against peripheral M2 receptor mediated cholinergic side effect hypothermia; Very flat dose-response curve with about 50% of maximum response at 350 umol/kg

Structure (SMILES): CCCCn1ncc(C2=CCCN(C)C2)n1
- ED50 [1]: 60 µmol/kg
- ED50 [2]: 72 µmol/kg
- ED50 [3]: > 160 µmol/kg

Structure (SMILES): CN1CCC=C(c2cnn(C)n2)C1
- ED50 [1]: 5.3 µmol/kg
- ED50 [2]: > 110 µmol/kg
- ED50 [3]: 3.6 µmol/kg

Structure (SMILES): CCn1ncc(C2=CCCNC2)n1
- ED50 [1]: 19 µmol/kg
- ED50 [2]: 60 µmol/kg
- ED50 [3]: 12 µmol/kg

Structure (SMILES): CCN1C(=O)CC2(CCN(C)CC2)C1=O
- ED50 [1]: 8.6 µmol/kg
- ED50 [2]: 38 µmol/kg
- ED50 [3]: 2.5 µmol/kg

Structure (SMILES): CCn1nnc(C2=CCCNC2)n1
- ED50 [1]: 78 µmol/kg
- ED50 [2]: > 150 µmol/kg
- ED50 [3]: 41 µmol/kg

Structure (SMILES): C[N+](C)(C)CCOC(N)=O
- ED50 [1]: 90 µmol/kg
- ED50 [3]: 120 µmol/kg

Structure (SMILES): CCn1ncc(C2=CCCN(C)C2)n1
- ED50 [2]: 180 µmol/kg
- ED50 [3]: 400 µmol/kg
- ED50 [4]: 350 µmol/kg
